The experiment deals with HCV replicon. The experiment can be described thus: HCV replicon replication assay (NPTII ELISA). Format: cell-based, Hepatitis C virus (Huh-7 cells). The note with it: Hepatitis C virus, Huh-7, 72 h, inhibition of HCV replicon replication in Huh-7 HCV replicon-containing cells, three days incubation, NPT level by ELISA; read-out: EC50. The essentials:
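Huh-7 cells carrying a Bartenschlager NPTII (neo) HCV replicon, treated 3 days at 37 °C with compound, generally 6 concentrations from 10 to 0.03 micromolar, in equal DMSO across wells. NPTII level, proportional to replication, read by capture ELISA on methanol:acetone-fixed cells; interferon alpha positive control; toxicity scored visually or by MTS.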
On the technique in general: In antiviral work, replicon cells carry a viral genome segment that copies itself.

What is called EC50 is the concentration giving half of the maximal effect. With `CCCCCCCCOc1ccc(N(C(=O)COC(C)=O)c2nc(-c3cccnc3)cs2)cc1C(F)(F)F` [Compound 158, 2-((4-(octyloxy)-3-(trifluoromethyl)phenyl)(4-(pyridin-3-yl)thiazol-2-yl)amino)-2-oxoethyl acetate], the half-maximal effective concentration (EC50) was less than 1 µM.
Consider `CCCCCCCCOc1ccc(N(C(=O)CO)c2nc(-c3cccnc3)cs2)cc1C(F)(F)F` [Compound 159, 2-hydroxy-N-(4-(octyloxy)-3-(trifluoromethyl)phenyl)-N-(4-(pyridin-3-yl)thiazol-2-yl)acetamide], for which the EC50 is less than 1 µM.
Regarding `CCCCCCCCOc1ccc(N(C(=O)CN(C)C)c2nc(-c3cccnc3)cs2)cc1C(F)(F)F` [Compound 160, 2-(dimethylamino)-N-(4-(octyloxy)-3-(trifluoromethyl)phenyl)-N-(4-(pyridin-3-yl)thiazol-2-yl)acetamide], the EC50 is less than 1 µM.
Next, `CCCCCCCCOc1ccc(N(C(=O)CCC(=O)O)c2nc(-c3cccnc3)cs2)cc1C(F)(F)F` [Compound 161, 4-((4-(octyloxy)-3-(trifluoromethyl)phenyl)(4-(pyridin-3-yl)thiazol-2-yl)amino)-4-oxobutanoic acid]: less than 1 µM; `CCCCCCCCOc1ccc(N(C(=O)CCC(=O)O)c2nc(-c3cccnc3)c(F)s2)cc1C(F)(F)F` [Compound 163, 4-((5-fluoro-4-(pyridin-3-yl)thiazol-2-yl)(4-(octyloxy)-3-(trifluoromethyl)phenyl)amino)-4-oxobutanoic acid]: less than 1 µM; `CCCCCCCCOc1ccc(N(C(=O)CNC(=O)OC(C)(C)C)c2nc(-c3cccnc3)c(F)s2)cc1C(F)(F)F` [Compound 164, tert-butyl 2-((5-fluoro-4-(pyridin-3-yl)thiazol-2-yl)(4-(octyloxy)-3-(trifluoromethyl)phenyl)amino)-2-oxoethylcarbamate]: less than 1 µM.
Next, `CCCCCCCCOc1ccc(N(C(=O)NCC(=O)O)c2nc(-c3cccnc3)cs2)cc1C(F)(F)F` [Compound 165, 2-(3-(4-(octyloxy)-3-(trifluoromethyl)phenyl)-3-(4-(pyridin-3-yl)thiazol-2-yl)ureido)acetic acid]: less than 1 µM.
In the case of `CCCCCCCCOc1ccc(N(C(=O)NCC(=O)O)c2nc(-c3cccnc3)c(F)s2)cc1C(F)(F)F` [Compound 166, 2-(3-(5-fluoro-4-(pyridin-3-yl)thiazol-2-yl)-3-(4-(octyloxy)-3-(trifluoromethyl)phenyl)ureido)acetic acid], the 50% effective concentration (EC50) was less than 1 µM.
As for `CCCCCCCCOc1ccc(N(C(=O)CN(C)C)c2nc(-c3cccnc3)c(F)s2)cc1C(F)(F)F` [Compound 167, 2-(dimethylamino)-N-(5-fluoro-4-(pyridin-3-yl)thiazol-2-yl)-N-(4-(octyloxy)-3-(trifluoromethyl)phenyl)acetamide], the concentration giving a half-maximal response (EC50) was less than 1 µM.
Then `CCCCCCCCOc1ccc(N(C(=O)COC(C)=O)c2nc(-c3cccnc3)c(F)s2)cc1C(F)(F)F` [Compound 168, 2-((5-fluoro-4-(pyridin-3-yl)thiazol-2-yl)(4-(octyloxy)-3-(trifluoromethyl)phenyl)amino)-2-oxoethyl acetate], with less than 1 µM; and `CCCCCCCCOc1ccc(N(C(=O)CO)c2nc(-c3cccnc3)c(F)s2)cc1C(F)(F)F` [Compound 169, N-(5-fluoro-4-(pyridin-3-yl)thiazol-2-yl)-2-hydroxy-N-(4-(octyloxy)-3-(trifluoromethyl)phenyl)acetamide], with less than 1 µM; and `CCCCCCCCc1ccc(N(C(=O)CN(C)C)c2nc(-c3cccnc3)c(F)s2)cc1C(F)(F)F` [Compound 170, 2-(dimethylamino)-N-(5-fluoro-4-(pyridin-3-yl)thiazol-2-yl)-N-(4-octyl-3-(trifluoromethyl)phenyl)acetamide], with less than 1 µM.
Turning to `CCCCCCCCOc1ccc(N(C(=O)OCCOCCOCCOCCOC)c2nc(-c3cccnc3)c(F)s2)cc1C(F)(F)F` [Compound 171, 2,5,8,11-tetraoxatridecan-13-yl 5-fluoro-4-(pyridin-3-yl)thiazol-2-yl(4-(octyloxy)-3-(trifluoromethyl)phenyl)carbamate], the EC50 is less than 1 µM.
In the case of `CCCCCCCCOc1ccc(N(C(=O)COCCOCCOC)c2nc(-c3cccnc3)c(F)s2)cc1C(F)(F)F` [Compound 172, N-(5-fluoro-4-(pyridin-3-yl)thiazol-2-yl)-2-(2-(2-methoxyethoxy)ethoxy)-N-(4-(octyloxy)-3-(trifluoromethyl)phenyl)acetamide], the EC50 is less than 1 µM.
With `CN(C)CC(=O)N(c1ccc(OCCCCc2cccs2)c(C(F)(F)F)c1)c1nc(-c2cccnc2)c(F)s1` [Compound 173, 2-(dimethylamino)-N-(5-fluoro-4-(pyridin-3-yl)thiazol-2-yl)-N-(4-(4-(thiophen-2-yl)butoxy)-3-(trifluoromethyl)phenyl)acetamide], the EC50 is less than 1 µM.
For `O=C(O)CCC(=O)N(c1ccc(OCCCCc2cccs2)c(C(F)(F)F)c1)c1nc(-c2cccnc2)c(F)s1` [Compound 174, 4-((5-fluoro-4-(pyridin-3-yl)thiazol-2-yl)(4-(4-(thiophen-2-yl)butoxy)-3-(trifluoromethyl)phenyl)amino)-4-oxobutanoic acid], the EC50 is less than 1 µM.
Then `CCCCCCCCc1ccc(N(C(C)=O)c2nc(-c3cccnc3)c(F)s2)cc1C(F)(F)F` [Compound 175, N-(5-fluoro-4-(pyridin-3-yl)thiazol-2-yl)-N-(4-octyl-3-(trifluoromethyl)phenyl)acetamide], with less than 1 µM; and `CCCCCCCCOc1ccc(N(C(N)=O)c2nc(-c3cccnc3)c(F)s2)cc1C(F)(F)F` [Compound 176, 1-(5-fluoro-4-(pyridin-3-yl)thiazol-2-yl)-1-(4-(octyloxy)-3-(trifluoromethyl)phenyl)urea], with less than 1 µM.
For the compound `CCCCCCCCOc1ccc(N(C(C)=O)c2nc(-c3cccnc3)c(F)s2)cc1C(F)(F)F` [Compound 177, N-(5-fluoro-4-(pyridin-3-yl)thiazol-2-yl)-N-(4-(octyloxy)-3-(trifluoromethyl)phenyl)acetamide], the concentration for a half-maximal effect (EC50) was less than 1 µM.
Then `CCCCCCCCc1ccc(N(C(N)=O)c2nc(-c3cccnc3)c(F)s2)cc1C(F)(F)F` [Compound 178, 1-(5-fluoro-4-(pyridin-3-yl)thiazol-2-yl)-1-(4-octyl-3-(trifluoromethyl)phenyl)urea], with less than 1 µM; and `CCCCCCCCc1ccc(N(C(=O)OCCN(C)C)c2nc(-c3cccnc3)c(F)s2)cc1C(F)(F)F` [Compound 179, 2-(dimethylamino)ethyl 5-fluoro-4-(pyridin-3-yl)thiazol-2-yl(4-octyl-3-(trifluoromethyl)phenyl)carbamate], with less than 1 µM.
Consider `CCCCCCCCc1ccc(N(C(=O)C(N)C(C)C)c2nc(-c3cccnc3)c(F)s2)cc1C(F)(F)F` (centres unmarked) [Compound 180, 2-amino-N-(5-fluoro-4-(pyridin-3-yl)thiazol-2-yl)-3-methyl-N-(4-octyl-3-(trifluoromethyl)phenyl)butanamide], for which the EC50 was less than 1 µM.
With `CCCCCCCCc1ccc(N(C(=O)OCC[N+](C)(C)C)c2nc(-c3cccnc3)c(F)s2)cc1C(F)(F)F` [Compound 181], the EC50 is less than 1 µM.
As to `CCCCCCCCc1ccc(N(C(=O)CC(C)(C)c2c(C)cc(C)cc2OP(=O)(O)O)c2nc(-c3cccnc3)c(F)s2)cc1C(F)(F)F` [Compound 182, 2-(4-((5-fluoro-4-(pyridin-3-yl)thiazol-2-yl)(4-octyl-3-(trifluoromethyl)phenyl)amino)-2-methyl-4-oxobutan-2-yl)-3,5-dimethylphenyl dihydrogen phosphate], the concentration giving a half-maximal response (EC50) lay in the range of 1 to 10 µM.
Take `CCCCCCCCc1ccc(N(C(=O)OCCOP(=O)(O)O)c2nc(-c3cccnc3)c(F)s2)cc1C(F)(F)F` [Compound 183, 2-(phosphonooxy)ethyl 5-fluoro-4-(pyridin-3-yl)thiazol-2-yl(4-octyl-3-(trifluoromethyl)phenyl)carbamate]: the 50% effective concentration (EC50) was less than 1 µM.
`CCCCCCCCc1ccc(N(C(=O)OCOC(=O)C(N)C(C)C)c2nc(-c3cccnc3)c(F)s2)cc1C(F)(F)F` (centres unmarked) [Compound 186, ((5-fluoro-4-(pyridin-3-yl)thiazol-2-yl)(4-octyl-3-(trifluoromethyl)phenyl)carbamoyloxy) methyl 2-amino-3-methylbutanoate]: the EC50 is less than 1 µM.
For `CCCCCCCCc1ccc(N(C(=O)OCOP(=O)(O)O)c2nc(-c3cccnc3)c(F)s2)cc1C(F)(F)F` [Compound 187, phosphonooxymethyl 5-fluoro-4-(pyridin-3-yl)thiazol-2-yl(4-octyl-3-(trifluoromethyl)phenyl)carbamate], the EC50 was less than 1 µM.
Turning to `CC/C=N/N(c1ccc(OCCCCCCCC)cc1)c1nc(-c2cccnc2)cs1` [Compound 188, (E)-2-(1-(4-(octyloxy)phenyl)-2-propylidenehydrazinyl)-4-(pyridin-3-yl)thiazolo], the concentration giving a half-maximal response (EC50) is less than 1 µM.
As for `C/C=N/N(c1ccc(OCCCCCCCC)c(C(F)(F)F)c1)c1nc(-c2cccnc2)cs1` [Compound 189, (E)-2-(2-ethylidene-1-(4-(octyloxy)-3-(trifluoromethyl)phenyl)hydrazinyl)-4-(pyridin-3-yl)thiazolo], the half-maximal effective concentration (EC50) was less than 1 µM.
Regarding `C/C=N/N(c1ccc(OCCCCCCCC)cc1)c1nc(-c2cccnc2)cs1` [Compound 190, (E)-2-(2-ethylidene-1-(4-(octyloxy)phenyl)hydrazinyl)-4-(pyridin-3-yl)thiazolo], the EC50 is less than 1 µM.
With `C/C=N/N(c1ccc(OCCCCCCCC)c(C(F)(F)F)c1)c1nc(-c2cccnc2)c(F)s1` [Compound 191, (E)-2-(2-ethylidene-1-(4-(octyloxy)-3-(trifluoromethyl)phenyl)hydrazinyl)-5-fluoro-4-(pyridin-3-yl)thiazolo], the EC50 is 1 to 10 µM.
`CCCCCCCCOc1ccc(N(COC(=O)C(C)(C)C)c2nc(-c3cccnc3)c(F)s2)cc1C(F)(F)F` [Compound 192, ((5-fluoro-4-(pyridin-3-yl)thiazol-2-yl)(4-(octyloxy)-3-(trifluoromethyl)phenyl)amino)methyl pivalate]: the EC50 is less than 1 µM.

The values are drawn from patent publication US20070213301A1 (ACHILLION PHARMACEUTICALS, INC., priority 2006, published 2007).
